Reference: the NIST ThermoML archive (doi:10.1016/j.jct.2008.01.008)

Assay: xn = mol fraction of the nth substance listed
Conditions: 298.15 K, 101 kPa, Liquid; for viscosity: Capillary tube (Ostwald / Ubbelohde) method; for speed of sound: Sing-around technique in a fixed-path interferometer

COCC(C)OCC(C)OC (stereo not given) [2-methoxy-1-(2-methoxy-1-methylethoxy)propane] + CCCCCO
Conditions	mass density [kg/m3]	speed of sound [m/s]	viscosity [mPa·s]
x1 = 0.0005	–	–	3.49
x1 = 0.0143	813.241	1274.5	–
x1 = 0.0225	–	–	3.246
x1 = 0.0441	817.684	1272	–
x1 = 0.0499	–	–	2.986
x1 = 0.0656	–	–	2.851
x1 = 0.0946	–	–	2.627
x1 = 0.1045	826.045	1266.6	–
x1 = 0.1367	–	–	2.357
x1 = 0.1523	832.101	1262.4	–
x1 = 0.194	–	–	2.078
x1 = 0.2149	839.509	1257.2	–
x1 = 0.2414	–	–	1.891
x1 = 0.2431	842.645	1255	–
x1 = 0.2954	–	–	1.728
x1 = 0.2986	848.553	1250.7	–
x1 = 0.3419	852.922	1247.5	–
x1 = 0.3597	–	–	1.574
x1 = 0.374	856.019	1245	–
x1 = 0.4018	858.624	1243.2	–
x1 = 0.4152	–	–	1.464
x1 = 0.4303	–	–	1.436
x1 = 0.4549	863.364	1239.5	–
x1 = 0.468	–	–	1.38
x1 = 0.4941	–	–	1.345
x1 = 0.5038	867.504	1236.6	–
x1 = 0.5334	869.911	1234.7	–
x1 = 0.5552	–	–	1.274
x1 = 0.591	–	–	1.23
x1 = 0.6034	875.242	1230.3	–
x1 = 0.6553	878.913	1226.5	–
x1 = 0.6625	–	–	1.169
x1 = 0.6968	881.667	1224	–
x1 = 0.709	–	–	1.137
x1 = 0.7445	–	–	1.112
x1 = 0.7505	885.025	1221.2	–
x1 = 0.796	–	–	1.079
x1 = 0.7962	887.727	1218.6	–
x1 = 0.8509	890.774	1215.1	–
x1 = 0.8555	–	–	1.054
x1 = 0.9071	893.759	1211	–
x1 = 0.9258	–	–	1.02
x1 = 0.9476	895.868	1208.7	–
x1 = 0.96	896.501	1207.8	–
x1 = 0.9803	–	–	0.9997

COCC(C)OCC(C)OC (stereo not given) [2-methoxy-1-(2-methoxy-1-methylethoxy)propane] + CCCCCCCO
Conditions	mass density [kg/m3]	speed of sound [m/s]	viscosity [mPa·s]
x1 = 0.0148	–	–	5.604
x1 = 0.0292	–	–	5.348
x1 = 0.0609	825.134	1317.8	–
x1 = 0.0718	–	–	4.664
x1 = 0.1164	830.66	1309.7	–
x1 = 0.1196	–	–	4.033
x1 = 0.157	834.553	1303	–
x1 = 0.1575	–	–	3.611
x1 = 0.1902	–	–	3.294
x1 = 0.2117	839.681	1295.5	–
x1 = 0.2555	–	–	3.016
x1 = 0.259	843.957	1289.2	–
x1 = 0.2613	–	–	2.766
x1 = 0.3119	–	–	2.468
x1 = 0.3132	848.706	1281.7	–
x1 = 0.3539	852.157	1276.4	–
x1 = 0.3616	–	–	2.235
x1 = 0.406	856.458	1270.5	–
x1 = 0.4129	–	–	2.031
x1 = 0.4366	–	–	1.949
x1 = 0.4532	–	–	1.895
x1 = 0.4533	860.298	1264.9	–
x1 = 0.5056	864.403	1258.8	–
x1 = 0.511	–	–	1.736
x1 = 0.5326	–	–	1.673
x1 = 0.552	867.948	1253.6	–
x1 = 0.5897	–	–	1.543
x1 = 0.5935	871.045	1249.2	–
x1 = 0.6316	873.865	1245.4	–
x1 = 0.6424	–	–	1.432
x1 = 0.7111	–	–	1.309
x1 = 0.7137	879.729	1236.2	–
x1 = 0.7457	–	–	1.25
x1 = 0.7666	883.415	1231	–
x1 = 0.7977	–	–	1.178
x1 = 0.8059	886.098	1226.6	–
x1 = 0.8495	889.001	1222.1	–
x1 = 0.8531	–	–	1.117
x1 = 0.8927	–	–	1.079
x1 = 0.9026	892.554	1216.1	–
x1 = 0.9293	894.156	1213	–
x1 = 0.9421	–	–	1.041
x1 = 0.9527	895.635	1210.7	–
x1 = 0.9678	–	–	1.02
x1 = 0.9935	–	–	0.9994

COCC(C)OCC(C)OC (stereo not given) [2-methoxy-1-(2-methoxy-1-methylethoxy)propane] + CO
Conditions	mass density [kg/m3]	speed of sound [m/s]	viscosity [mPa·s]
x1 = 0.0146	–	–	0.567
x1 = 0.023	799.44	1116.2	–
x1 = 0.0467	–	–	0.6092
x1 = 0.0705	820.052	1138.4	–
x1 = 0.0738	–	–	0.644
x1 = 0.1106	–	–	0.6831
x1 = 0.1312	838.725	1158.2	–
x1 = 0.1422	–	–	0.7112
x1 = 0.1632	846.233	1166.2	–
x1 = 0.1646	–	–	0.7327
x1 = 0.1725	–	–	0.7378
x1 = 0.1988	–	–	0.7576
x1 = 0.2058	–	–	0.7648
x1 = 0.2094	855.089	1175.4	–
x1 = 0.2514	861.6	1182	–
x1 = 0.2621	–	–	0.8031
x1 = 0.3018	867.961	1188.1	–
x1 = 0.3128	–	–	0.8321
x1 = 0.3583	–	–	0.8527
x1 = 0.3598	873.908	1193.9	–
x1 = 0.4	–	–	0.871
x1 = 0.4036	877.603	1197.3	–
x1 = 0.4549	881.296	1200.3	0.8941
x1 = 0.5022	884.189	1202.6	–
x1 = 0.5123	–	–	0.9106
x1 = 0.5449	886.449	1204.3	–
x1 = 0.5474	–	–	0.9206
x1 = 0.6169	889.615	1206.2	–
x1 = 0.6261	–	–	0.9387
x1 = 0.6494	890.83	1206.8	–
x1 = 0.6802	–	–	0.9504
x1 = 0.7083	892.78	1207.7	–
x1 = 0.7319	–	–	0.9598
x1 = 0.7557	–	–	0.9634
x1 = 0.756	894.087	1207.9	–
x1 = 0.7919	–	–	0.9682
x1 = 0.8114	895.425	1207.8	–
x1 = 0.8537	896.298	1207.6	–
x1 = 0.8565	–	–	0.9775
x1 = 0.9047	897.217	1207	–
x1 = 0.9185	–	–	0.9855
x1 = 0.9327	–	–	0.9862
x1 = 0.9364	897.708	1206.2	–
x1 = 0.9511	897.931	1206.2	–
x1 = 0.9572	–	–	0.9881
x1 = 0.974	–	–	0.9898
